Measured values taken from patent US11274090B2, “P300/CBP HAT inhibitors” (Constellation Pharmaceuticals, Inc., priority 2018, dated 2022).

Biological target: p300 HAT domain (residues 1287-1666) (Homo sapiens (Human), UniProt Q09472)
Assay: p300 HAT SPA assay (scintillation proximity assay, acetylation of biotinylated H3(1-21) peptide)
Assay type: biochemical
Conditions: average of at least 2 replicate titrations
Procedure: In a typical experiment the p300 HAT inhibitory activity of the compounds described herein was determined in accordance with the following experimental method.
The expressed protein was purified by Ni2+ affinity, followed by anion exchange chromatography. Appropriate fractions were pooled and buffer exchanged into 20 mM Hepes pH 7.5, 150 mM NaCl, and 1 mM TCEP.
35 μL of the reaction volume was transferred to a 384-well streptavidin FlashPlate (PerkinElmer) using a Bravo liquid handler (Velocity 11) and incubated for 1.5 hr at RT. […] Data were analyzed in Genedata to determine inhibitor IC50 values.

Chain of p300 HAT domain (residues 1287-1666) (Q09472 1287-1666): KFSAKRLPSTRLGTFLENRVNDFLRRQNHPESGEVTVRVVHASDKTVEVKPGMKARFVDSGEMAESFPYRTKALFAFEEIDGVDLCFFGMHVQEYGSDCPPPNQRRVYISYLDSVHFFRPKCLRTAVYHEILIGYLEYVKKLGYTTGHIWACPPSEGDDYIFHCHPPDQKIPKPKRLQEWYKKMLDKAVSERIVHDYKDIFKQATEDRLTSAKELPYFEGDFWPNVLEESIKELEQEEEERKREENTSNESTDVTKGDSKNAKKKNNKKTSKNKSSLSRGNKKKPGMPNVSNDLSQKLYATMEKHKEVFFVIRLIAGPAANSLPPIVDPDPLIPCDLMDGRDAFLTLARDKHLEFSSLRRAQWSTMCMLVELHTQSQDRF

Row | Compound | IC50
1 | Cn1cc(-c2ccc(NC(=O)C(NCCn3cc(C#N)cn3)c3ccccc3)nc2)cn1 (single isomer, unassigned) [144 Isomer 2] | 1070 nM
2 | CCN(CC)C(=O)C1CCN(c2ccc(NC(=O)C(NCCc3ccc(C#N)cc3)c3ccccc3)nc2)CC1 (single isomer, unassigned) [64 Isomer 2] | 568 nM
3 | CC(CNC(C(=O)Nc1ccc(-c2cnn(C(C)(C)C#N)c2)cn1)c1ccccc1)c1ccc(C#N)cc1 (single isomer, unassigned) [47 Isomer 3] | > 2000 nM
4 | Cc1cnc(-c2ccc(NC(=O)C(NCCc3ccc(C#N)cc3)c3ccccc3)cc2)[nH]1 (single isomer, unassigned) [11 Isomer 2] | > 5000 nM
5 | Cc1ncc(C(C)CNC(C(=O)Nc2ccc(-c3cnn(C)c3)cn2)c2ccccc2)cn1 (single isomer, unassigned) [150 Isomer 4] | 622 nM
6 | Cn1cc(-c2ccc(NC(=O)C(NCCc3ccc(C#N)cc3)c3ccccc3)c(Cl)c2)cn1 (single isomer, unassigned) [26 Isomer 2] | 1850 nM
7 | CC(=O)N1CCN(c2ccc(NC(=O)C(NC[C@@H](C)c3ccc(C#N)cc3)c3cccc(F)c3)nc2)CC1 (single isomer, unassigned) [135 Isomer 1] | 855 nM
8 | C[C@H](CNC(C(=O)Nc1ccc(-c2cnn(CC(N)=O)c2)cn1)c1ccccc1)c1ccc(C#N)cc1 (single isomer, unassigned) [147 Isomer 2] | 6.16 nM
9 | C[C@H](CNC(C(=O)Nc1ccc(-c2cnn(CC(=O)N(C)C)c2)cn1)c1ccccc1)c1ccc(C#N)cc1 (single isomer, unassigned) [84 Isomer 1] | 395 nM
10 | CC(CNC(C(=O)Nc1ccc(-c2cnn(C)n2)cn1)c1ccccc1)c1ccc(C#N)cc1 (single isomer, unassigned) [98 Isomer 3] | > 2000 nM
11 | Cn1cc(-c2ccc(NC(=O)C(NCCc3ccc(Cl)cc3)c3cnn(C)c3)nc2)cn1 (single isomer, unassigned) [148 Isomer 2] | 140 nM
12 | COc1cc(NC(=O)C(NCCc2ccc(C#N)cc2)c2ccccc2)ccc1-c1cnn(C)c1 (single isomer, unassigned) [25 Isomer 2] | > 5000 nM
13 | CC(CNC(C(=O)Nc1ccc(-c2cnn(C)c2)cn1)c1cnn(C)c1)c1ccc(C#N)cc1 (single isomer, unassigned) [127 Isomer 3] | > 2000 nM
14 | N#Cc1ccc(CCNC(C(=O)Nc2ccc(N3CCOCC3)cn2)c2ccccc2)cc1 (single isomer, unassigned) [81 Isomer 1] | 139 nM
15 | Cc1ccc(-c2ccc(NC(=O)C(NCC(C)c3ccc(C#N)cc3)c3ccccc3)nc2)nn1 (single isomer, unassigned) [15 Isomer 1] | > 2000 nM
16 | COC1CN(c2ccc(NC(=O)C(NCC(C)c3ccc(C#N)cc3)c3ccccc3)nc2)C1 (single isomer, unassigned) [32 Isomer 1] | > 2000 nM
17 | CNC(=O)Cn1cc(-c2ccc(NC(=O)C(NC[C@@H](C)c3ccc(C#N)cc3)c3ccccc3)nc2)cn1 (single isomer, unassigned) [146 Isomer 2] | 7.76 nM
18 | N#Cc1ccc(CCNC(C(=O)Nc2ccc(N3CCC(F)(F)C3)cn2)c2ccccc2)cc1 (single isomer, unassigned) [77 Isomer 1] | 39.4 nM
19 | CC(CNC(C(=O)Nc1ccc(-c2cnn(C)c2)cc1)c1ccccc1)c1ccc(Cl)cc1 (single isomer, unassigned) [2 Isomer 1] | > 5000 nM
20 | CC(CNC(C(=O)Nc1ccc(-c2cnn(C)c2)cc1)c1ccccc1)c1ccc(C#N)cc1 (single isomer, unassigned) [82 Isomer 3] | 604 nM
21 | NS(=O)(=O)c1ccc(CCN[C@H](C(=O)N2CCc3ccccc32)c2ccccc2)cc1 (single isomer, unassigned) [153 Isomer 2] | 1930 nM
22 | CC(CNC(C(=O)Nc1ccc(-c2cnn(C(C)(C)C)c2)cn1)c1ccccc1)c1ccc(C#N)cc1 (single isomer, unassigned) [54 Isomer 4] | 1970 nM
23 | CC(CNC(C(=O)Nc1ccc(-c2cnn(CC(F)(F)F)c2)cn1)c1ccccc1)c1ccc(C#N)cc1 (single isomer, unassigned) [83 Isomer 1] | > 2000 nM
24 | CC(CNC(C(=O)Nc1ccc(-c2cnn(C(C)(C)C)c2)cn1)c1ccccc1)c1ccc(C#N)cc1 (single isomer, unassigned) [54 Isomer 1] | 383 nM
25 | Cn1cc(-c2ccc(NC(=O)C(NCCc3ccc(C#N)c(F)c3)c3ccccc3)nc2)cn1 (single isomer, unassigned) [85 Isomer 2] | 470 nM
26 | Cc1noc(C)c1-c1ccc(NC(=O)C(NC[C@@H](C)c2ccc(C#N)cc2)c2ccccc2)nc1 (single isomer, unassigned) [131 Isomer 2] | 38 nM
27 | Cc1cc(C#N)nn1CCNC(C(=O)Nc1ccc(-c2cnn(C)c2)cn1)c1ccccc1 (single isomer, unassigned) [145 Isomer 2] | > 2000 nM
28 | Cn1cc(-c2ccc(NC(=O)C(NCC3(c4ccc(Cl)cc4)CC3)c3ccccc3)nc2)cn1 (single isomer, unassigned) [97 Isomer 1] | 191 nM

Row | Compound | IC50
29 | Cn1cc(-c2ccc(NC(=O)C(NCCc3ccc(C#N)cc3C(F)(F)F)c3ccccc3)nc2)cn1 (single isomer, unassigned) [95 Isomer 1] | 41.4 nM
30 | Cn1cc(-c2ccc(NC(=O)C(NCCc3ccc(C#N)cc3Cl)c3ccccc3)nc2)cn1 (single isomer, unassigned) [51 Isomer 2] | 237 nM
31 | CC(CNC(C(=O)Nc1ccc(-c2cnn(C3CCC3)c2)cn1)c1ccccc1)c1ccc(C#N)cc1 (single isomer, unassigned) [52 Isomer 2] | > 2000 nM
32 | CC(CNC(C(=O)Nc1ccc(-c2cnn(C(F)F)c2)cn1)c1cnn(C)c1)c1ccc(C#N)cc1 (single isomer, unassigned) [128 Isomer 1] | 572 nM
33 | CC(CNC(C(=O)Nc1ccc(-c2cnn(C)c2)cn1)c1ccccc1)c1ccc(C#N)cc1F (single isomer, unassigned) [90 Isomer 1] | 210 nM
34 | Cc1nc(-c2ccc(NC(=O)C(NC[C@@H](C)c3ccc(C#N)cc3)c3ccccc3)nc2)no1 (single isomer, unassigned) [107 Isomer 2] | 72.3 nM
35 | Cc1cn(-c2ccc(NC(=O)C(NCCc3ccc(C#N)cc3)c3ccccc3)nc2)nn1 (single isomer, unassigned) [78 Isomer 2] | > 2000 nM
36 | Cn1cc(-c2ccc(NC(=O)C(NCCc3ccc(C#N)cc3)c3ccc(Cl)cc3)nc2)cn1 (single isomer, unassigned) [67 Isomer 2] | 216 nM
37 | Cc1nnc2n1CCN(c1ccc(NC(=O)C(NCCc3ccc(C#N)cc3)c3ccccc3)nc1)C2 (single isomer, unassigned) [60 Isomer 1] | 32.5 nM
38 | Cc1cc(NC(=O)C(NC[C@@H](C)c2ccc(C#N)cc2)c2ccccc2)ncc1-c1cnn(C)c1 (single isomer, unassigned) [115 Isomer 1] | > 2000 nM
39 | C[C@H](CNC(C(=O)Nc1ccc(C2CC(=O)N(C)C2)cn1)c1ccccc1)c1ccc(C#N)cc1 (single isomer, unassigned) [109 Isomer 2] | > 2000 nM
40 | CC(CNC(C(=O)Nc1ccc(N2CCN(C)C(=O)C2)cn1)c1ccccc1)c1ccc(C#N)cc1 (single isomer, unassigned) [101 Isomer 4] | > 2000 nM
41 | N#Cc1ccc(CCNC(C(=O)Nc2ccn(-c3ccccc3)n2)c2ccccc2)cc1 (single isomer, unassigned) [50 Isomer 1] | 279 nM
42 | CN1CCN(c2ccc(NC(=O)C(NCCc3ccc(Cl)cc3)c3ccccc3)nc2)CC1 (single isomer, unassigned) [69 Isomer 1] | 35.8 nM
43 | CN1CCN(c2ccc(NC(=O)C(NCCc3ccc(C#N)cc3)c3ccccc3)cn2)CC1 (single isomer, unassigned) [36 Isomer 2] | > 5000 nM
44 | Cn1cc(-c2ccc(NC(=O)C(NCCc3ccc(C(F)(F)F)nc3)c3ccccc3)nc2)cn1 (single isomer, unassigned) [140 Isomer 1] | 153 nM
45 | CCN1CCN(c2ccc(NC(=O)C(NCCc3ccc(C#N)cc3)c3ccccc3)nc2)C1=O (single isomer, unassigned) [76 Isomer 1] | 88 nM
46 | CC(CNC(C(=O)Nc1ccc(-c2cnn(C)n2)cn1)c1ccccc1)c1ccc(C#N)cc1 (single isomer, unassigned) [98 Isomer 4] | 1460 nM
47 | CC(CNC(C(=O)Nc1ccc(-c2cnn(C)c2)cc1)c1ccccc1)c1ccc(C#N)cc1 (single isomer, unassigned) [82 Isomer 1] | > 5000 nM
48 | C[C@H](CNC(C(=O)Nc1ccc(-c2ccn(C)c(=O)c2)cn1)c1ccccc1)c1ccc(C#N)cc1 (single isomer, unassigned) [105 Isomer 1] | > 2000 nM
49 | Cn1cc(-c2ccc(NC(=O)C(NCCc3ccc(Cl)cc3C#N)c3ccccc3)nc2)cn1 (single isomer, unassigned) [94 Isomer 1] | 85.1 nM
50 | CC(Cc1ccc(Cl)cc1)NC(C(=O)Nc1ccc(-c2cnn(C)c2)cc1)c1ccccc1 (single isomer, unassigned) [3 Isomer 4] | 3890 nM
51 | CC(CNC(C(=O)Nc1ccc(-n2cnc(C(C)(C)C)c2)cn1)c1ccccc1)c1ccc(C#N)cc1 (single isomer, unassigned) [59 Isomer 3] | > 2000 nM
52 | Cc1ncc(C(C)CNC(C(=O)Nc2ccc(-c3cnn(C)c3)cn2)c2ccccc2)cn1 (single isomer, unassigned) [150 Isomer 1] | > 2000 nM
53 | C[C@H](CNC(C(=O)Nc1ccc(-c2cc(=O)n(C)cn2)cn1)c1ccccc1)c1ccc(C#N)cc1 (single isomer, unassigned) [106 Isomer 1] | > 2000 nM
54 | CC1CN(C)C(=O)CN1c1ccc(NC(=O)C(NC[C@@H](C)c2ccc(C#N)cc2)c2ccccc2)nc1 (single isomer, unassigned) [125 Isomer 1] | 1650 nM
55 | CC(CNC(C(=O)Nc1ccc(-c2cn(C)nn2)cn1)c1ccccc1)c1ccc(C#N)cc1 (single isomer, unassigned) [100 Isomer 1] | 668 nM
